The values that follow come from patent US7259167B2, “Antimalarial and antiproliferative pharmacophore models, novel tryptanthrin compounds having increased solubility, and methods of making and using thereof” (United States of America as Represented by the Secretary of …, priority 2002, dated 2007).

Each structure is given as a SMILES string. In brackets after ≈: the same amount, converted by molar mass.

A short description of series [1]: Hemin binding activity assay by 1H NMR (pseudocontact shifts). The note with it: for Maximum induced Δδ: hemin induced pseudocontact chemical shift; for Maximum induced Δδ / Concentration dependence Δδ: DMSO-d6; for Concentration dependence Δδ: slope of Δδ v. hemin concentration. The procedure: As provided in Example 5, the hemin binding affinity for a series of tryptanthrin compounds with functional groups at the 8-position with different electron donating/withdrawing characteristics corresponding with the pharmacophore model of the present invention was determined by ^1H NMR. The binding interaction was measured as a function of the induced up-field shift in the chemical shift as a function of increasing hemin concentration. ^1H spectra of selected compounds each analog with an increasing concentration of hemin were collected and analyzed for the effect of the pseudocontact shifts.
It is well known that bio-molecules containing the paramagnetic species Fe^+3 induce via pseudocontact effect (a thru-space paramagnetic interaction, similar to the thru-space diopolar interaction or NOE) up-field chemical shifts of the ^1H, ^13C, ^15N atoms of bound ligands. See Serge Moreau et al. (1985) Biochemica et. Biophysica Acta 107-116; Alam, S. L., et al. (1998) J. Biomol. NMR 11:119-133; and Kalodimos, C. G., et al. (2000) J. Inorg. Biochem. 79:371-380, which are herein incorporated by reference. […] See Crowley, P. B., et al. (2001) J. Am. Chem. Soc. 123:10444-10453, which is herein incorporated by reference. Consequently, the closer a particular proton on the ligand is to the Fe^+3 atom, the greater the induced Δδ.
The hemin binding affinity for a series of tryptanthrin compounds with functional groups at the 8-position with different electron donating/withdrawing characteristics corresponding with the pharmacophore model of the present invention was determined using ^1H NMR. The binding interaction was measured as a function of the induced up-field shift in the chemical shift as a function of increasing hemin concentration. ^1H spectra of each analog with an increasing concentration of hemin were collected and analyzed for the effect of the pseudocontact shifts.
To each sample, a 100 or 200 μl aliquot of a known concentration of hemin dissolved in 1.0 ml of DMSO-d6 was added. The concentrations of the tryptanthrin compounds compounds ranged from 3.0 to 8.0 mg per 500 μl of DMSO. A corresponding solution of hemin in DMSO was prepared to maintain a molar ratio of tryptanthrin compounds to hemin in the range of 1:1.0 to 1:1.5.
All ^1H NMR data was collected using a Bruker Avance-600 spectrometer using methods known in the art. See e.g. Wang, J., et al. (2001) J. Am. Chem. Soc. 123:8080-8088, which is herein incorporated by reference. The proton spectra were collected at 300 K, using a spectral width of 9090.9 Hz. All spectra were acquired with 64k data points in F2. All chemical shifts were referenced internally to TMS (0.00 ppm). The spectra were processed using XWINNMR (Bruker BioSpin Corporation, Billerica, Mass.) on a Silicon Graphics O2 workstation (Silicon Graphics, Mountain View, Calif.). Each data set was multiplied by a Gaussain window function with 0.3 Hz line broadening in each dimension before transformation.

The test system of series [2] is P. falciparum W2 (Indochina) clone. The series is described as follows: Antimalarial activity assay in vitro ([3H]hypoxanthine incorporation), W2 clone. Type of series: cell-based. The note with it: Plasmodium falciparum, Table 7, read-out: W-2. The source says:
Although two P. falciparum malaria parasite clones, designated as Sierra Leone (D6) and Indochina (W2) were used in the susceptibility testing as disclosed in Example 1, the IC50 values obtained from the W2 clones were used as the activity parameter to develop the pharmacophore model as the D6 clone results closely paralleled the W2 clones. See U.S. Pat. No. 6,284,772, which is herein incorporated by reference.
(§1) The tryptanthrin compounds were examined for IC50 values against either the P. falciparum W2 (Indochina) or D6 (Sierra Leone) clones in vitro. See U.S. Pat. No. 6,284,772, which is herein incorporated by reference. The in vitro assays were conducted by using the semiautomated microdilution technique of Desjardins, et al. (1979) Antimicrob. Agents Chemther. 16:710-718 and the [^3H]hypoxanthine incorporation techniques of Chulay et al. (1983) Exp. Parasitol. 55:138-146, both of which are herein incorporated by reference. […] The clones were derived by direct visualization and micromanipulation from the patient isolates.
(§2) Test tryptanthrin compounds were initially dissolved in DMSO and diluted 400-fold in RPMI 1640 culture medium supplemented with 25 mM Hepes, 32 mM NaHCO3 and 10% Albumax I (GIBCO BRL, Grand Island, N.Y.). These solutions were subsequently serially diluted 2-fold with a Biomek 1000 (Beckman, Fullerton, Calif.) over 11 different concentrations. The parasites were exposed to serial dilutions of each compound for 48 hours and incubated at 37° C. with 5% O2, 5% CO2, and 90% N2 prior to the addition of [^3H]hypoxanthine. After a further incubation of 18 hours, parasite DNA was harvested from each microtiter well using a Packard Filtermate 196 Harvester (Meriden, Conn.) onto glass filters. Uptake of [^3H]hypoxanthine was measured with a Packard topcount scintillation counter.

Series [3] has as its system P. falciparum D6 (Sierra Leone) clone. The series can be described thus: Antimalarial activity assay in vitro ([3H]hypoxanthine incorporation), D6 clone. Type of series: cell-based. The conditions noted are these: Plasmodium falciparum, Table 7, read-out: D-6. The procedure: as §1, §2
A short description of series [4]: Cyclic voltammetry, redox potentials. Type of series: physicochemical. Details: unit not given here. The note with it: 1 mM in acetonitrile, 0.1 M tetrabutylammonium hexafluorophosphate, Ag-AgCl reference. The protocol:
The redox potentials associated with electron transfer to the oxygen atoms in compounds was measured. Experiments were performed on a CV-50W Voltammetric analyzer with a C2 cell stand (Bioanalytical systems, West Lafayette Ind.).
Cyclic voltammetry experiments were performed on a CV-50W Voltammetric analyzer with a C2 cell stand (Bioanalytical systems, West Lafayette Ind.). A glassy carbon working, an Ag—AgCl reference electrode and a Pt auxiliary electrode were used in a 5 ml glass cell. All samples were dissolved in dry acetonitrile (Aldrich, St. Louis, Mo.) with 0.1 M tetrabutylammonium hexafluorophosphate (Aldrich, St. Louis, Mo.) as the supporting electrolyte. Each analog was prepared at a concentration of 1 mM and was degassed with nitrogen for 5 minutes prior to analysis. Samples were run at several scan rates ranging from 20 to 1000 mV/s. See Smyth, M. R., and Vos, J. G. Analytical Voltammetry; Elsevier: New York, 1992; Chapter 1, which is herein incorporated by reference.

The subject of the next series is malaria parasites. The series can be described thus: In vivo testing (modified Thompson test), mouse malaria. Also on record: species or system mice. The text has this:
The in vivo efficacy of the compounds of the present invention alone or in combination with an adjuvant can be determined in a modified Thompson test. This test measures the survivability of mice and parasitemia clearance following administration of the compound or composition of the invention on days 3-5 post infection. In brief, 5×10^5 malaria parasites of one or more of the four described strains are inoculated intraperitoneally to female mice that weight approximately 24-30 g. Each compound was dissolved in 5% sodium bicarbonate, and was administered p.o. twice daily from day 3 to day 5 postinfection. Total dosage of the compounds of the invention is 0.001 to 1000 mg/kg. The percent suppression of parasitemia in the treated mice compared to untreated controls is determined for each test compound. Survival of mice to day 60 post infection is considered a cure. Compounds are considered active when the survival time of the treated mice is greater than twice the control mice.
The test of the six compounds identified above were conducted by subcutaneous dosing in peanut oil. Formulated in peanut oil and injected s.c. (N=8) at various doses up to 190 mg/kg. […] Although parasites were not cleared, the survival of infected mice doubled that of the control. Life expectancy was 12-14 days compared to 6-7 days in the control (parasitized, untreated).

On to `COc1ccc2c(c1)C(=O)c1nc3ncccc3c(=O)n1-2` [DN23], for which, in series [1], the “Maximum induced Δδ” value is reported as 0.208 ppm and the “Concentration dependence Δδ” value came out at 0.119 ppm/mole %.

Consider `O=C1c2cc(Cl)ccc2-n2c1nc1cc(F)ccc1c2=O` [WR281583], for which the IC50 in series [2] worked out at 4.74 ng/mL (≈ 0.0158 µM); in series [3], 6.77 ng/mL (≈ 0.0225 µM). This molecule showed a Redox1 in series [4] of −586. The “Redox 2” value in series [4] is on record as −1242.

With `O=C1c2cc(OC(F)(F)F)ccc2-n2c1nc1ncccc1c2=O` [DN9], in series [1], the “Maximum induced Δδ” value is recorded as 0.462 ppm and the “Concentration dependence Δδ” value is reported as 0.08951 ppm/mole %.

`O=C1c2cc(OC(F)(F)F)ccc2-n2c1nc1cc(SCCO)ccc1c2=O` [WR281525]: the IC50 in series [2] turned out to be 1.25 ng/mL (≈ 0.00307 µM). In series [3], the IC50 turned out to be 2.31 ng/mL (≈ 0.00566 µM). Also, in series [4], the Redox1 is −600 and the “Redox 2” value is given as −1252.

`O=C1c2cc(Cl)ccc2-n2c1nc1cc(N3CCCCC3)ccc1c2=O` [WR281647]: in series [2], the IC50 is 58.1 ng/mL (≈ 0.159 µM). Moreover, in series [3], the IC50 was found to be 97.1 ng/mL (≈ 0.265 µM). In addition, in series [4], the Redox1 was −696 and the “Redox 2” value is listed as −1348.

`COc1cccc2c(=O)n3c(nc12)C(=O)c1cc(I)ccc1-3` [WR281635]: the IC50 in series [2] stood at 35.6 ng/mL (≈ 0.0882 µM). For the same molecule, in series [3], the IC50 stood at 95.3 ng/mL (≈ 0.236 µM). For the same molecule, in series [4], the Redox1 is −640 and the “Redox 2” value is on record as −1230.

In the case of `O=C1c2cc(F)ccc2-n2c1nc1c(F)cccc1c2=O` [WR281631], the IC50 in series [2] came out at 1.58 ng/mL (≈ 0.00557 µM). Moreover, the IC50 in series [3] worked out at 2.57 ng/mL (≈ 0.00904 µM). In series [4], the Redox1 was −593 and the “Redox 2” value was −1219.

For the molecule `O=C1c2cc([N+](=O)[O-])ccc2-n2c1nc1ncccc1c2=O` [DN40], in series [1] (compared with DN48), the “maximum pseudocontact shift relative to DN48” value is “approximately 3 times”. In series [1], the “Maximum induced Δδ” value is on record as 1.538 ppm and the “Concentration dependence Δδ” value turned out to be 0.4159 ppm/mole %.

On to `O=C1c2ccc(Cl)cc2-n2c1nc1ncccc1c2=O` [DN48], for which, in series [1], the “Maximum induced Δδ” value was found to be 0.389 ppm and the “Concentration dependence Δδ” value was 0.119 ppm/mole %.

Take `O=C1c2cc(F)ccc2-n2c1nc1ccccc1c2=O` [WR^282611]: the “survival of infected mice relative to control” value with malaria parasites (190 mg/kg s.c. in peanut oil) was “doubled”. For the same molecule, the Life expectancy in the series with malaria parasites (190 mg/kg s.c. in peanut oil, control 6-7 days) lay in the range of 12 to 14 days. Moreover, the activity entry with malaria parasites (max. dosage 190 mg/kg s.c. in peanut oil) is reported as “exhibited activity”.

Regarding `CN(CCO)c1ccc2c(=O)n3c(nc2c1)C(=O)c1cc(F)ccc1-3` [WR281523], the IC50 in series [2] was 2.46 ng/mL (≈ 0.00723 µM); in series [3] it was 4.12 ng/mL (≈ 0.0121 µM). The molecule further came in with a Redox1 in series [4] of −630. Further, in series [4], the “Redox 2” value is listed as −1281.

With `CCCCCCCC(=O)OCCN(C)c1ccc2c(=O)n3c(nc2c1)C(=O)c1cc(Cl)ccc1-3` [WR281591], the IC50 in series [2] was found to be 36.8 ng/mL (≈ 0.0764 µM); in series [3] it was 70.1 ng/mL (≈ 0.146 µM). Further, the Redox1 in series [4] is listed as −709. Also, the “Redox 2” value in series [4] was −1375.

On to `O=C1c2cc(F)ccc2-n2c1nc1ncccc1c2=O` [DN63], for which, in series [1], the “Maximum induced Δδ” value came to 0.360 ppm and the “Concentration dependence Δδ” value is listed as 0.1366 ppm/mole %.

Consider `CN1CCN(c2ccc3c(=O)n4c(nc3c2)C(=O)c2cc(Cl)ccc2-4)CC1` [WR281588], for which the IC50 in series [2] stood at 4.27 ng/mL (≈ 0.0112 µM). For the same molecule, the IC50 in series [3] was 10.5 ng/mL (≈ 0.0275 µM). In series [4], the Redox1 is recorded as −692 and the “Redox 2” value is listed as −1324.
